According to patent publication US12391737B2, “Soluble NPY2 receptor agonists” (Boehringer Ingelheim International GmbH, priority 2020, dated 2025):
*1 amine or outer side, *2 acyl side, *3 side chain or, on linkers, in order; H or OH if unused. Where a SMILES comes first, the peptide text is derived from it. Side-chain parts run from the residue outwards. The star is where a group is joined. C18 diacid = O=C(O)CCCCCCCCCCCCCCCCC(=O)*; γGlu = O=C(O)[C@H](CCC(=O)[*:2])N[*:1]; Isovaleryl = CC(C)CC(=O)*; Ahx = NCCCCCC(=O)O

Assays:
[1] = target: T1, Human Neuropeptide Y2 Receptor (Homo sapiens, UniProt P49146); assay: Radioligand binding competition assay (RLB); conditions: Table 3, 125I-PYY(1-36) competition; read-out: Ki
T1 construct: purchased CHEMICON HTS066M
T1 sequence (P49146 1-381): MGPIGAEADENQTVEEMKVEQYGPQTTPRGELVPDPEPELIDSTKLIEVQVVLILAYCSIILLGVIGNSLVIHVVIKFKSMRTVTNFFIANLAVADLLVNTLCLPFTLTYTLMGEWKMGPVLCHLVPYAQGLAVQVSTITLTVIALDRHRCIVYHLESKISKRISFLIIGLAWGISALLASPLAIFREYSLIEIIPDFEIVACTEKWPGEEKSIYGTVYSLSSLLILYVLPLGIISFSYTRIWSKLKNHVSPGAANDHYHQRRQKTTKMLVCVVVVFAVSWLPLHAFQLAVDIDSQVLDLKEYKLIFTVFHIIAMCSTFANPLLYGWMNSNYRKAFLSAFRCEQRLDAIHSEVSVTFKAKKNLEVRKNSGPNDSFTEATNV
How it was run: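 Displacement of radioligand is measured after 2 h at room temperature with receptor membranes in Mg2+/Ca2+ HEPES buffer, pH 7.4. Filter-bound radioactivity is counted and IC50 obtained from curve fitting.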

[2] = Solubility determination; conditions: for Sol6: pH 6; for Sol7: pH 7
How it was run: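 Sample: TFA-salt peptide at 10 mg/ml target in 0.1 M Na diphosphate, pH 6.4 or 7.0, shaken 2 h RT, filtered, diluted to 1 mg/ml.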

Row | SMILES | Ki [1] [nM] | Sol6 [2] [mg/mL] | Sol7 [2] [mg/mL]
1 | CC[C@H](C)[C@H](NC(=O)[C@H](CCC(=O)O)NC(=O)[C@H](CCC(=O)O)NC(=O)[C@@H]1CCCN1C(=O)[C@H](CCC(=O)O)NC(=O)[C@H](C)NC(=O)[C@H](C)NC(=O)[C@H](C)NC(=O)[C@H](CCC(=O)O)NC(=O)[C@@H]1CCCN1C(=O)[C@H](CCCCNC(=O)CCCCCNC(=O)CC[C@H](NC(=O)CCCCCCCCCCCCCCCCC(=O)O)C(=O)O)NC(=O)[C@H](CCC(=O)O)NC(=O)[C@@H]1CCCN1C(=O)[C@H](C)NC(=O)CC(C)C)C(=O)N[C@@H](CCC(N)=O)C(=O)N[C@@H](CCCNC(=N)N)C(=O)N[C@@H](Cc1ccc(O)cc1)C(=O)N[C@@H](Cc1ccc(O)cc1)C(=O)N[C@H](C(=O)N[C@@H](C)C(=O)N[C@@H](CC(C)C)C(=O)N[C@@H](CCCNC(=N)N)C(=O)N[C@@H](Cc1c[nH]cn1)C(=O)N[C@@H](Cc1ccc(O)cc1)C(=O)N[C@@H](Cc1ccc(O)cc1)C(=O)N[C@@H](CC(N)=O)C(=O)N[C@@H](Cc1c[nH]c2ccccc12)C(=O)N[C@@H](CC(C)C)C(=O)N[C@H](C(=O)N[C@@H](CCCNC(=N)N)C(=O)N[C@@H](CCC(N)=O)C(=O)N[C@@H](CCCNC(=N)N)C(=O)N[C@@H](Cc1ccc(O)cc1)C(N)=O)[C@@H](C)O)C(C)C [Compound 135, N{alpha-4}-(3-methylbutanoyl)-N{epsilon-7}-(6-[(4S)-4-carboxy-4-(17-carboxyheptadecanamido)butanamido]hexanoyl)-[4A,7K,9E,10A,11A,13E,17I,18Q,22V,23A,28Y,30W,31L]-hPYY(4-36)] (Isovaleryl-APEK([Ahx-γGlu-C18 diacid])PEAAAEPEEIQRYYVALRHYYNWLTRQRY-NH2) | 3.83 | 0.2 | >10.0
2 | CC(C)CC(=O)N[C@@H](C)C(=O)N1CCC[C@H]1C(=O)N[C@@H](CCC(=O)O)C(=O)N[C@@H](CCCCNC(=O)CCCCCNC(=O)CC[C@H](NC(=O)CCCCCCCCCCCCCCCCC(=O)O)C(=O)O)C(=O)N1CCC[C@H]1C(=O)N[C@@H](CCC(=O)O)C(=O)N[C@@H](CCC(=O)O)C(=O)N[C@@H](CC(=O)O)C(=O)N[C@@H](C)C(=O)N[C@H](C(=O)N1CCC[C@H]1C(=O)N[C@@H](CCC(=O)O)C(=O)N[C@@H](CCC(=O)O)C(=O)N[C@@H](CC(C)C)C(=O)N[C@@H](CCC(N)=O)C(=O)N[C@@H](CCCNC(=N)N)C(=O)N[C@@H](Cc1ccc(O)cc1)C(=O)N[C@@H](Cc1ccc(O)cc1)C(=O)N[C@H](C(=O)N[C@@H](CCC(=O)O)C(=O)N[C@@H](CC(C)C)C(=O)N[C@@H](CCCNC(=N)N)C(=O)N[C@@H](Cc1c[nH]cn1)C(=O)N[C@@H](Cc1ccc(O)cc1)C(=O)N[C@@H](Cc1ccc(O)cc1)C(=O)N[C@@H](CC(N)=O)C(=O)N[C@@H](Cc1c[nH]c2ccccc12)C(=O)N[C@@H](CC(C)C)C(=O)N[C@H](C(=O)N[C@@H](CCCNC(=N)N)C(=O)N[C@@H](CCC(N)=O)C(=O)N[C@@H](CCCNC(=N)N)C(=O)N[C@@H](Cc1ccc(O)cc1)C(N)=O)[C@@H](C)O)C(C)C)[C@@H](C)O [Compound 110, N{alpha-4}-(3-methylbutanoyl)-N{epsilon-7}-(6-[(4S)-4-carboxy-4-(17-carboxyheptadecanamido)butanamido]hexanoyl)-[4A,7K,9E,13T,18Q,22V,23E,28Y,30W,31L]-hPYY(4-36)] | 6.42 | 10.0 | >10.0
3 | CC(C)CC(=O)N[C@@H](C)C(=O)N1CCC[C@H]1C(=O)N[C@@H](CCC(=O)O)C(=O)N[C@@H](CCCCNC(=O)CCCCCNC(=O)CC[C@H](NC(=O)CCCCCCCCCCCCCCCCC(=O)O)C(=O)O)C(=O)N1CCC[C@H]1C(=O)N[C@@H](CCC(=O)O)C(=O)N[C@@H](CCC(=O)O)C(=O)N[C@@H](CC(=O)O)C(=O)N[C@@H](C)C(=O)N[C@H](C(=O)N[C@@H](CC(C)C)C(=O)N[C@@H](CCC(=O)O)C(=O)N[C@@H](CCC(=O)O)C(=O)N[C@@H](CC(C)C)C(=O)N[C@@H](CCC(N)=O)C(=O)N[C@@H](CCCNC(=N)N)C(=O)N[C@@H](Cc1ccc(O)cc1)C(=O)N[C@@H](Cc1ccc(O)cc1)C(=O)N[C@H](C(=O)N[C@@H](CO)C(=O)N[C@@H](CC(C)C)C(=O)N[C@@H](CCCNC(=N)N)C(=O)N[C@@H](Cc1c[nH]cn1)C(=O)N[C@@H](Cc1ccc(O)cc1)C(=O)N[C@@H](Cc1ccc(O)cc1)C(=O)N[C@@H](CC(N)=O)C(=O)N[C@@H](Cc1c[nH]c2ccccc12)C(=O)N[C@@H](CC(C)C)C(=O)N[C@H](C(=O)N[C@@H](CCCNC(=N)N)C(=O)N[C@@H](CCC(N)=O)C(=O)N[C@@H](CCCNC(=N)N)C(=O)N[C@@H](Cc1ccc(O)cc1)C(N)=O)[C@@H](C)O)C(C)C)[C@@H](C)O [Compound 102, N{alpha-4}-(3-methylbutanoyl)-N{epsilon-7}-(6-[(4S)-4-carboxy-4-(17-carboxyheptadecanamido)butanamido]hexanoyl)-[4A,7K,9E,13T,14L,18Q,22V,28Y,30W,31L]-hPYY(4-36)] | 7.15 | 10.0 | 9.7

These reach a lower Ki [1]. Values come first.

Row | Ki [1] [nM] | Sol6 [2] [mg/mL] | Sol7 [2] [mg/mL] | SMILES
4 | 2.05 | 9.2 | 9.7 | CC(C)CC(=O)N[C@@H](C)C(=O)N1CCC[C@H]1C(=O)N[C@@H](C)C(=O)N[C@@H](CCCCNC(=O)CCCCCNC(=O)CC[C@H](NC(=O)CCCCCCCCCCCCCCCCC(=O)O)C(=O)O)C(=O)N1CCC[C@H]1C(=O)N[C@@H](CCC(=O)O)C(=O)N[C@@H](CCC(=O)O)C(=O)N[C@@H](CC(=O)O)C(=O)N[C@@H](C)C(=O)N[C@@H](CO)C(=O)N1CCC[C@H]1C(=O)N[C@@H](CCC(=O)O)C(=O)N[C@@H](CCC(=O)O)C(=O)N[C@@H](CC(C)C)C(=O)N[C@@H](CCC(N)=O)C(=O)N[C@@H](CCCNC(=N)N)C(=O)N[C@@H](Cc1ccc(O)cc1)C(=O)N[C@@H](Cc1ccc(O)cc1)C(=O)N[C@H](C(=O)N[C@@H](CCC(=O)O)C(=O)N[C@@H](CC(C)C)C(=O)N[C@@H](CCCNC(=N)N)C(=O)N[C@@H](Cc1c[nH]cn1)C(=O)N[C@@H](Cc1ccc(O)cc1)C(=O)N[C@@H](Cc1ccc(O)cc1)C(=O)N[C@@H](CC(N)=O)C(=O)N[C@@H](Cc1c[nH]c2ccccc12)C(=O)N[C@@H](CC(C)C)C(=O)N[C@H](C(=O)N[C@@H](CCCNC(=N)N)C(=O)N[C@@H](CCC(N)=O)C(=O)N[C@@H](CCCNC(=N)N)C(=O)N[C@@H](Cc1ccc(O)cc1)C(N)=O)[C@@H](C)O)C(C)C [Compound 166, N{alpha-4}-(3-methylbutanoyl)-N{epsilon-7}-(6-[(4S)-4-carboxy-4-(17-carboxyheptadecanamido)butanamido]hexanoyl)-[4A,6A,7K,9E,18Q,22V,23E,28Y,30W,31L]-hPYY(4-36)]
5 | 0.41 | 0.1 | 8.9 | CC[C@H](C)[C@H](NC(=O)[C@H](CCC(=O)O)NC(=O)[C@H](CCC(=O)O)NC(=O)[C@@H]1CCCN1C(=O)[C@H](CO)NC(=O)[C@H](C)NC(=O)[C@H](CC(=O)O)NC(=O)[C@H](C)NC(=O)[C@@H]1CCCN1C(=O)[C@@H]1CCCN1C(=O)[C@H](CCCCNC(=O)CCCCCNC(=O)CC[C@H](NC(=O)CCCCCCCCCCCCCCCCC(=O)O)C(=O)O)NC(=O)[C@H](CCC(=O)O)NC(=O)[C@@H]1CCCN1C(=O)[C@H](C)NC(=O)CC(C)C)C(=O)N[C@@H](CCC(N)=O)C(=O)N[C@@H](CCCNC(=N)N)C(=O)N[C@@H](Cc1ccc(O)cc1)C(=O)N[C@@H](Cc1ccc(O)cc1)C(=O)N[C@H](C(=O)N[C@@H](CO)C(=O)N[C@@H](CC(C)C)C(=O)N[C@@H](CCCNC(=N)N)C(=O)N[C@@H](Cc1c[nH]cn1)C(=O)N[C@@H](Cc1ccc(O)cc1)C(=O)N[C@@H](Cc1ccc(O)cc1)C(=O)N[C@@H](CC(N)=O)C(=O)N[C@@H](Cc1c[nH]c2ccccc12)C(=O)N[C@@H](CC(C)C)C(=O)N[C@H](C(=O)N[C@@H](CCCNC(=N)N)C(=O)N[C@@H](CCC(N)=O)C(=O)N[C@@H](CCCNC(=N)N)C(=O)N[C@@H](Cc1ccc(O)cc1)C(N)=O)[C@@H](C)O)C(C)C [Compound 61, N{alpha-4}-(3-methylbutanoyl)-N{epsilon-7}-(6-[(4S)-4-carboxy-4-(17-carboxyheptadecanamido)butanamido]hexanoyl)-[4A,7K,9P,10A,17I,18Q,22V,28Y,30W,31L]-hPYY(4-36)]
